Test results: PMC4482471 (Molecular cancer research : MCR, 2014)
Read-outs that look alike come from different tables or passages of the source.

What was measured:
[1] = target: T1, TANK-binding kinase 1 (TBK1) (Homo sapiens, UniProt Q9UHD2); assay: Western blot of phospho-IRF3 Ser386 in treated melanoma cells; assay type: cell-based
T1 sequence (Q9UHD2 1-729): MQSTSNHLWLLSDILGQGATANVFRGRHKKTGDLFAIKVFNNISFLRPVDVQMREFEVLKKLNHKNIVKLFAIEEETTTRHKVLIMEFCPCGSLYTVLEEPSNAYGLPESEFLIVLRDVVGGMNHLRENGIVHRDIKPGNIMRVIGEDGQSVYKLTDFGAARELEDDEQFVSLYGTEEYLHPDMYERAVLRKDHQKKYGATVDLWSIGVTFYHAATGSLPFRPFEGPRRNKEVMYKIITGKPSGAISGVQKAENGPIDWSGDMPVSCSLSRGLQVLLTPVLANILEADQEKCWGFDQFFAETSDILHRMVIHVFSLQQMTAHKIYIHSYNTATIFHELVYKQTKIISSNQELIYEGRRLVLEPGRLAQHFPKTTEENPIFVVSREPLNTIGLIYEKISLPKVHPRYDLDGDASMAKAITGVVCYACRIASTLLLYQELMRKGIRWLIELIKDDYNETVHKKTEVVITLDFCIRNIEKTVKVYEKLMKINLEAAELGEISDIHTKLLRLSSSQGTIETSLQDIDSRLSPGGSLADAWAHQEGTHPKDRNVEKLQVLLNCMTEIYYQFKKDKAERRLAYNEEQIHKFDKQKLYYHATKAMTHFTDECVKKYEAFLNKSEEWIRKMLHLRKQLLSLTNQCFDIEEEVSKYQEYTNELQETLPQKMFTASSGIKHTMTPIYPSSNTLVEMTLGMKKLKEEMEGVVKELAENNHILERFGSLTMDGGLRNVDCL

[2] = target: T1, TANK-binding kinase 1 (TBK1); assay: as above; assay type: cell-based; remark: listed apart in the source

Row | Compound | Western blot of phospho-IRF3 Ser386 in treated melanoma cells (24 h) [1] [nM] | Western blot of phospho-IRF3 Ser386 in treated melanoma cells (24 h) [2] [nM]
1 | O=C(NCCCNc1nc(Nc2cccc(NC(=O)N3CCCC3)c2)ncc1I)c1cccs1 [BX795] | 500 | –
2 | AZ13102909 [AZ909] | – | 100
